Laboratory results reported in patent publication EP4585587A1, “PROPIONIC ACID DERIVATIVE AND USE THEREOF IN MEDICINE” (priority 2022, dated 2024).
Counter-ions that a name gives are not always drawn.

Tests used:
[1] = tested on: integrin α4β1; experiment: Integrin α4β1-mediated cell adhesion assay (Jurkat cells on VCAM); assay type: cell-based; settings: for α4β1/α4β7: selectivity ratio of Jurkat (α4β1)/VCAM-1 IC50 to RPMI-8866 (α4β7)/MadCAM-1 IC50; for IC50: Jurkat cells, VCAM coated plate, read-out: Jurkat (α4β1)/VCAM-1 IC50
Protocol: VCAM was formulated into a final concentration of 0.5 µg/ml with a coating buffer, 50 µl of the solution was transferred to a 96-well plate, and the plate was coated with same at 4°C overnight. The plate was washed with coating buffer three times, then 150 µl of a blocking solution (coating buffer containing 1% BSA) was added, and the plate was blocked at 37°C for 1 h. Jurkat cells were collected, washed twice using DPBS buffer, and then resuspended to 4 × 10^6 cells/ml with an action buffer. 50 µl of the cell suspension was transferred to a 96-well plate so that the cell density reached 2 × 10^5 cells/well. Then 1 µl of the test compound at different concentration or DMSO was added and the plate was incubated at 37°C for 1 h. The plate was washed with coating buffer to remove non-adherent cells. 50 µl of a substrate (4-nitrophenyl-N-acetyl-β-D-glucosaminide) was added and the plate was incubated at 37°C for 2 h. Finally, 90 µl of a termination solution (50 mM glycine and 5 mM EDTA, pH 10.4) was added. The OD value of the plate was read at 405 nm. • Coating buffer: DMEM+ 20 mM HEPES+ 0.4 mM MnCl2 • Action buffer: DMEM+ 20 mM HEPES+ 0.1% BSA+0.4 mM MnCl2 • DMEM: dulbecco's modified eagle medium; • HEPES: 2-[4-(2-hydroxyethyl)piperazin-1-yl]ethanesulfonic acid Table 1 Results of effects of compounds on α4β7- and α4β1-mediated cell adhesion

[2] = Pharmacokinetic test in mice; assay type: in vivo; settings: male BALB/c mice, plasma
Protocol: Experimental animals: male BALB/c mice, 20-25 g, 6 mice/compound. purchased from Chengdu Ddossy Experimental Animals Co., Ltd.
Experimental design: on the day of the test, 6 BALB/c mice were randomly grouped according to their body weights. The animals were fasted with water available for 12 to 14 h one day before the administration and were fed 4 h after the administration. Table 2. Administration information
Before and after the administration, 0.06 mL of blood was taken from the orbit of the animals under isoflurane anesthesia and placed in an EDTAK2 centrifuge tube. The blood was centrifuged at 5000 rpm and 4°C for 10 min to collect plasma. The blood collection time points for the intravenous group and intragastric group were both 0 min, 5 min, 15 min, 30 min, 1 h, 2 h, 4 h, 6 h, 8 h, and 24 h. Before analysis and detection, all samples were stored at -80°C, and the samples were quantitatively analyzed by LC-MS/MS.

[3] = Test of stability in liver microsomes; assay type: in vitro ADME; settings: Monkey liver microsomes, 1 µM, 37°C, NADPH
[4] = Test of stability in liver microsomes; assay type: in vitro ADME; settings: Rat liver microsomes, 1 µM, 37°C, NADPH
[5] = Test of stability in liver microsomes; assay type: in vitro ADME, mouse; settings: Mice liver microsomes, 1 µM, 37°C, NADPH
[6] = target: T1, integrin α4β7 (Homo sapiens, UniProt P13612+P26010); experiment: Integrin α4β7 cell adhesion assay (RPMI8866 cells on MAdCAM-1); assay type: cell-based; settings: RPMI8866 cells, MAdCAM-1 coated plate; numeric value or bound; read-out: RPMI-8866 (α4β7)/MadCAM-1 IC50
T1 sequence (P13612 34-1032): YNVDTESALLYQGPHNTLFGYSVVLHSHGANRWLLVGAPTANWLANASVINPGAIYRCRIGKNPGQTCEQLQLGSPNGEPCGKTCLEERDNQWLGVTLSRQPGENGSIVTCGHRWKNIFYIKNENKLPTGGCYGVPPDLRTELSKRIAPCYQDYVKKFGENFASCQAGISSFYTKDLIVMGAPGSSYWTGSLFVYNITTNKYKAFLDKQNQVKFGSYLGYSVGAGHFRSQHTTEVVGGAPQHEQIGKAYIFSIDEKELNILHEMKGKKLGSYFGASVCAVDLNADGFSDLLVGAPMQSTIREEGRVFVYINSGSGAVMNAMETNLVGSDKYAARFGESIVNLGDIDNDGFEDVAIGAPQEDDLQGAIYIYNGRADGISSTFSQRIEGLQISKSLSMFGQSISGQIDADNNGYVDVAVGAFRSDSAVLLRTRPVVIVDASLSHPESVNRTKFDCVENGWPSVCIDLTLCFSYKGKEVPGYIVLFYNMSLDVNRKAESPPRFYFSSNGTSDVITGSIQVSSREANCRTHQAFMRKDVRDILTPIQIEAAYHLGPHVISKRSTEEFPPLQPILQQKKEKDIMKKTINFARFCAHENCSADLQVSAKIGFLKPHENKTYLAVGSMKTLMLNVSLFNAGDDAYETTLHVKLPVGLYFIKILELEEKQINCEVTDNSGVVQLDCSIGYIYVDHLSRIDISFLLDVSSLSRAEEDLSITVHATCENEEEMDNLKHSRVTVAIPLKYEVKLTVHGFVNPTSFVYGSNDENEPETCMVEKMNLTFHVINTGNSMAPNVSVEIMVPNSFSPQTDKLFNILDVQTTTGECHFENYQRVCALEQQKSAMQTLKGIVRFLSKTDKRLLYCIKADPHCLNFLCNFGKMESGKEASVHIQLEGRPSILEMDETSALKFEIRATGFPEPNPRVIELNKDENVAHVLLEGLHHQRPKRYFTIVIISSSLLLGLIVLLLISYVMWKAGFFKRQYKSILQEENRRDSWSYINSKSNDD
T1 sequence (P26010 20-798): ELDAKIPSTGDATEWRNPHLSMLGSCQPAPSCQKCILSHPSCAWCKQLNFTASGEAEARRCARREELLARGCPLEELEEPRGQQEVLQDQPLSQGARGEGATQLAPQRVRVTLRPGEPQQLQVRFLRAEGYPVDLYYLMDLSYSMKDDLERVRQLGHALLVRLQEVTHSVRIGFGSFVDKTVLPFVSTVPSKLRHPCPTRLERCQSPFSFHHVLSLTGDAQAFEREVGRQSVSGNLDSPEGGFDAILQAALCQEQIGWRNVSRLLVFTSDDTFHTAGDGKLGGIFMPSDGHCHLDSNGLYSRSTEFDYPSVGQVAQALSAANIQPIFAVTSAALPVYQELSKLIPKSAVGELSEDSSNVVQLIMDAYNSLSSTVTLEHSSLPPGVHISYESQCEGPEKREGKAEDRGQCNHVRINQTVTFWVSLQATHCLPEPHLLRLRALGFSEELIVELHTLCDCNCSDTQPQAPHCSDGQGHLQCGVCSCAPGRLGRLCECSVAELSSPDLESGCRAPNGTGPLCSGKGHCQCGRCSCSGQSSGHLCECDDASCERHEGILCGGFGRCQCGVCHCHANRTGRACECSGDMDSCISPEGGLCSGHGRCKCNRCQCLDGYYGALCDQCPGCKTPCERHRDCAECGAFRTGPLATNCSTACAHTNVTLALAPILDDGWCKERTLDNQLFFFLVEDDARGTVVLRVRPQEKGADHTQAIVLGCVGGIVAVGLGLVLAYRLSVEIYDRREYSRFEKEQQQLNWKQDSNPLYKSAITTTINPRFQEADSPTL
Protocol: MAdCAM-1 was formulated with TBS buffer to a final concentration of 2 µg/ml, 50 µl of the solution was transferred to a 96-well plate, and the plate was coated with same at 4°C overnight. The plate was washed with TBS buffer three times, then 150 µl of a blocking solution (TBS buffer containing 1% BSA) was added, and the plate was blocked at 37°C for 1 h. […] 50 µl of the cell suspension was transferred to a 96-well plate so that the cell density reached 2×10^5 cells/well. Then 1 µl of the compound at different concentrations or DMSO was added and the plate was incubated at 37°C for 1 h or 2 h. The plate was washed with TBS buffer to remove non-adherent cells. 50 µl of a substrate (4-nitrophenyl-N-acetyl-β-D-glucosaminide) was added and the plate was incubated at 37°C for 2 h. […] The IC50 value was calculated using GraphPad Prism 6 software.

IC50 [6] [nM] | IC50 [1] [nM] | Structure (SMILES) | α4β1/α4β7 [1] | CL ([2]; IV: 1 mg/kg) [mL/min/kg] | AUC ([2]; PO: 10 mg/kg) [ng·h/mL] | Test compound after 1h incubation Remaining% (T=60min) [3] [%] | Test compound after 1h incubation Remaining% (T=60min) [4] [%] | Test compound after 1h incubation Remaining% (T=60min) [5] [%]
 |  | Cc1cc(-c2c(C)cc(F)cc2C)cc([C@H](CC(=O)O)NC(=O)[C@H](CC(C)C)n2cc(CCN(C)C)c(C(F)(F)F)cc2=O)c1F [Control compound A] | 50.4 | 56.0 | 830 | 1.8 | 31.9 | 42.6
< 1 | > 200 | CC#Cc1cc(-c2c(C)cccc2C)c(F)c(C(CC(=O)O)NC(=O)[C@H](CC(C)C)n2cc(CCC3CCCN3C)c(C(F)(F)F)cc2=O)c1F (stereo partly drawn) [Trifluoroacetate salt of compound 29-2] | 292 |  |  |  |  | 
< 1 | > 100 | Cc1cc(F)cc(C)c1-c1c(F)c(C(CC(=O)O)NC(=O)[C@H](CC(C)C)n2cc(CC3CN(C(C)C)C3)c(C(F)(F)F)cc2=O)c(F)c2c1CCC2 (stereo partly drawn) [Trifluoroacetate salt of compound 32-2] | 220 |  |  |  |  | 
